Measured values: patent publication US8470763B2, “Alpha-amino-N-substituted amides, pharmaceutical composition containing them and uses thereof” (Shanghai Institute of Materia Medica Chinese Academy of …, priority 2007, dated 2013)
Read-outs that look alike come from different tables or passages of the source.

Assays:
[1] = test system: MDA-MB-435S human breast cancer cells; assay: MTT assay, proliferation of MDA-MB-435S cells; format: cell-based; conditions: Homo sapiens, 72 h
Experimental: The experiments for evaluating the antineoplasmic activities of the compounds according to the present invention were carried out, and the compounds' antineoplasmic activities in vitro was evaluated by determining the inhibitory activities thereof against the proliferation of MDA-MB-435S human breast cancer cells.
The antineoplasmic activities were determined by using the MTT assay, which is based on the metabolic reduction of 3-(4,5-dimethylthylthiazol-2-yl)-2,5-diphenyl tetrazolium bromide (MTT). The dehydrogenases, which are related to NADP (niacinamide adenine dinucleotide phosphate, coenzyme) and present in mitochondrions of living cells, can reduce the yellow MTT to an insoluble, dark purple formazan. […] After the formazan is dissolved in DMSO, the optical density is determined on an ELISA Reader at the wavelength of 550/690 nm.
(§1) The adhered MDA-MB-4355 cells in logarithmic growth phase, were digested by 0.05% trypsogen, counted and formulated into a cell suspension with a medium. After counted, the suspension was inoculated on a 96-well plate with 3000 cells and 100 μl medium per well. The inoculated 96-well plate was placed overnight in an incubator at 37 with 5% CO2 to allow the cells to adhere to the wall. On the next day, the administration of the drugs started. Before the administration, into some of the control wells, each was added 20 μl of the MTT solution (5 mg/ml) without removing the medium therein. After incubated for 3 h, the absorption at A550/690 was recorded as the initial cell concentration. For the drug wells, each was added into 100 μl of medium containing 2 μl of compound solution. For the control wells which use DMSO as background control, each was also added into 100 μl of medium containing 2 μl of DMSO. In addition, each experiment was carried out with adriamycin as the positive control. Subsequently, the 96-well plate was incubated in an incubator at 37 with 5% CO2 for 72 h. each compound was tested in triplicate wells (6 μl of compound solution was put into a sterilized eppendorf centrifuge tube, then 300 μl of medium was added and mixed well, and the mixture was distributed into 3 wells respectively), and at six concentrations which form a gradient. 3 days (72 h) later, 40 μl of MTT solution (5 mg/ml) was put into each well directly (without sucking off the medium therein), and the plate was incubated in the incubator for 3 h and then taken out. The liquid in each well was sucked off, and then 100 μl of DMSO was put into each well to dissolve the crystal completely with slight shake. The absorbance of the solution in each well was determined at 550/690 nm on an ELISA Reader as the cell density after treated with the compound. The growth inhibition of compound against breast cancer cells MDA-MB-435S was represented by the cell survival rate, and IC50 was determined from the profile of cell survival rate vs compound concentration. The calculating formula was as follows: cell survival rate=[(cells+compound)A550/690/(cells+compound vector DMSO)A550/690]×100%

[2] = test system: colon cancer cells HCT116; assay: MTT assay, HCT116 cells; format: cell-based; conditions: Homo sapiens, HCT-116, 72 h
Experimental: as §1
(§2) MDA-MB-435S: human breast cancer cells; HCT116: colon cancer cells; A549: lung adenocarcinoma cells; Hela: uterine cervix cancer cells.
(§3) The tests were performed in the same manner as that of experimental example 1, except that for Hela cells, after counted, each well was seeded with 1000 cells and 100 μl of medium on a 96-well plate.

[3] = test system: lung adenocarcinoma cells A549; assay: MTT assay, A549 cells; format: cell-based; conditions: Homo sapiens, 72 h
Experimental: as §1, §2, §3

[4] = test system: Hela uterine cervix cancer cells; assay: MTT assay, Hela cells; format: cell-based; conditions: Homo sapiens, 72 h, 1000 cells per well
Experimental: as §1, §2, §3

A549 (Lung Cancer) = assay: SRB assay, A549; format: cell-based; conditions: Homo sapiens, 72 h, read-out: IC50 (μM) (mean ± SD)
Experimental: (§4) Experimental method: The antineoplasmic activities in vitro of the compounds were determined by SRB assay. The detailed procedure was as follows. The cells in the logarithmic growth phase were inoculated on a 96-well microculture plate with a suitable density (100 μl/well), and allowed to attach overnight, followed by addition of the compound at different concentrations to be treated for 72 h. For each concentration, the test was carried out in triplicate wells, and included control wells containing the aqueous medium of normal saline and a blank well containing all medium without cells for zeroing. After cultured overnight, the cells were treated with the compound at different concentrations for 72 h. After the treatment, the culture medium was removed, and the cells were fixed with 10% (wt/vol) trichloroacetic acid (100 μL/well) at 4° C. for 1 h. The cells were then washed with distilled water for 5 times, and died at room temperature, followed by addition of a SRB solution (4 mg/mL, dissolved in 1% glacial acetic acid) at 100 μL/well. The cells were incubated and stained at room temperature for 15 min, then washed with 1% glacial acetic acid for 5 times to remove the uncombined SRB, and died at room temperature. 100 μL of 10 mM Tris solution was added in each well, and the Optical Density (OD) were measured at a wavelength of 560 nm on a VERSMax ELISA Reader (Molecule Devices). The growth inhibition of the compound against tumor cells was calculated according to the following equation: Growth inhibition (%)=(ODcontrol−ODtreated)/ODcontrol×100%.
(§5) IC50 (the concentration of the sample compound that is required for 50% inhibition of cell growth) was calculated by using the Logit method based on the measurement, and each test was repeated for 3 times to calculate the mean value and standard deviation.

[5] = test system: SGC-7901 (Gastric Cancer); assay: SRB assay, SGC-7901; format: cell-based; conditions: Homo sapiens, 72 h, read-out: IC50 (μM) (mean ± SD)
Experimental: as §4, §5

HCT-116 (Colon Cancer) = assay: SRB assay, HCT-116; format: cell-based; conditions: Homo sapiens, 72 h, read-out: IC50 (μM) (mean ± SD)
Experimental: as §4, §5

HO-8910 (Ovarian Cancer) = assay: SRB assay, HO-8910; format: cell-based; conditions: 72 h, read-out: IC50 (μM) (mean ± SD)
Experimental: as §4, §5

DU145 (Prostatic Cancer) = assay: SRB assay, DU145; format: cell-based; conditions: Homo sapiens, DU-145, 72 h, read-out: IC50 (μM) (mean ± SD)
Experimental: as §4, §5

BEL-7402 (Liver Cancer) = assay: SRB assay, BEL-7402; format: cell-based; conditions: Homo sapiens, 72 h, read-out: IC50 (μM) (mean ± SD)
Experimental: as §4, §5

SMMC-7721 (Liver Cancer) = assay: SRB assay, SMMC-7721; format: cell-based; conditions: Homo sapiens, 72 h, read-out: IC50 (μM) (mean ± SD)
Experimental: as §4, §5

Zip177 (Liver Cancer) = assay: SRB assay, Zip177; format: cell-based; conditions: 72 h, read-out: IC50 (μM) (mean ± SD)
Experimental: as §4, §5

HepG2 (Liver Cancer) = assay: SRB assay, HepG2; format: cell-based; conditions: Homo sapiens, 72 h, read-out: IC50 (μM) (mean ± SD)
Experimental: as §4, §5

7404 (Liver Cancer) = assay: SRB assay, 7404; format: cell-based; conditions: 72 h, read-out: IC50 (μM) (mean ± SD)
Experimental: as §4, §5

[6] = test system: MDA-MB-435 (Breast Cancer); assay: SRB assay, MDA-MB-435; format: cell-based; conditions: Homo sapiens, 72 h, read-out: IC50 (μM) (mean ± SD)
Experimental: as §4, §5

[7] = test system: HPAF-II (Pancreatic Cancer); assay: SRB assay, HPAF-II; format: cell-based; conditions: Homo sapiens, 72 h, read-out: IC50 (μM) (mean ± SD)
Experimental: as §4, §5

HMEC (Others) = assay: SRB assay, HMEC; format: cell-based; conditions: Homo sapiens, 72 h, read-out: IC50 (μM) (mean ± SD)
Experimental: as §4, §5

[8] = test system: human breast cancer cells MDA-MB-435 transplanted on nude mice; assay: Antineoplasmic activity in vivo, MDA-MB-435 transplanted tumor on nude mice; conditions: MMC 5 mg/kg, d1, i.v.
Experimental: Dosage: among 3 groups, the dosages of L538 were set at 5, 10 and 20 mg/kg as the high, middle and low dosages, respectively, administrating intravenously 3 times a week; while MMC was administrated intravenously at the first day whit a dosage of 5 mg/kg.
Animals: BALB/CA nude mice, male, 40-45 days old, body weight: 18±1 g, provided by Shanghai Institute of Materia Medica, Chinese Academy of Sciences. […] Animal number in each group: 7 in negative control group, and 4 in administration group.
The amount of inoculated cells was 5×10^6. After the transplanted tumor was formed by inoculation, it was used after passed for 3 generations in nude mice.
Experimental procedure: tumor tissue in productive phase was cut into nubs of about 1.5 mm^3. Under sterile conditions, the nubs were inoculated subcutaneously in right axillary fossa of the nude mice. The diameters of the transplanted tumors on nude mice were measured by a vernier caliper. When the tumors grew up to 100-200 mm^3, the animals were divided randomly into groups. Mice in experimental groups were administered intravenously every other day. […] The total administration duration was 3 weeks. For the positive control, MMC, Mice were administered intravenously once at the first day of a week, and the total administration duration was 3 weeks. Mice in control groups were administrated physiologic saline in equivalent amount. The diameter of the tumor and weight of mice were measured twice a week. The equation for calculating the TV (tumor volume) was as follows: TV=½×a×b^2, • wherein, a is length and b is width. RTV (relative tumor volume) was calculated based on the measured results, and the equation thereof was as follows: RTV=Vt/V0 • wherein, V0 is the tumor volume measured when the mice were grouped (i.e. d0), and Vt is the tumor volume at each measurement. The evaluation index for the antitumor activity was the relative tumor proliferation rateT/C (%).
The calculation equation was as follows: T/C(%)=(TRTV/CRTV)×100, • wherein, TRTV is the RTV of therapeutic Group and CRTV is RTV of negative control group.

human tumor cells = conditions: background; cited from earlier work
[9] = test system: heterograft of MDA-MB-4355 human breast cancer cells; conditions: background; cited from earlier work
[10] = background; cited from earlier work
[11] = note: MDA-MB-435S, read-out: IC50 (MDA-MB-435)
[12] = read-out: Cell Survival Rate IC50

| Compound | IC50 [1, 11] [nM] | IC50 [1, 12] [nM] | IC50 [2] [nM] | IC50 [3] [nM] | IC50 [4] [nM] | other results |
| --- | --- | --- | --- | --- | --- | --- |
| CCOC(=O)CNC(=O)[C@H](C)NC(=O)[C@H](OC)[C@H](O)[C@@H](O)[C@H](O)/C=C/C(C)(C)C [Compound L418] | 5170 ± 941 | 5170 | 1500 ± 215 | 1550 ± 241 | 572 ± 171 | – |
| CO[C@@H](C(=O)N[C@@H](C)C(=O)NCCOC1CCCCC1)[C@H](O)[C@@H](O)[C@H](O)/C=C/C(C)(C)C [Compound L458e] | 2830 ± 695 | 2190 | 1510 ± 283 | 594 ± 69 | 822 ± 175 | – |
| CO[C@@H](C(=O)N[C@@H](C)C(=O)NCCOC(=O)C1CC=CCC1)[C@H](O)[C@@H](O)[C@H](O)/C=C/C(C)(C)C (stereo partly drawn) [Compound L484] | 541 ± 205 | 540 | 130 ± 15 | 219 ± 30 | 188 ± 42 | – |
| CO[C@@H](C(=O)N[C@@H](C)C(=O)NCCOC(=O)C1CCCCC1)[C@H](O)[C@@H](O)[C@H](O)/C=C/C(C)(C)C [Compound L486d] | 284 ± 100 | 280 | 97 ± 13 | 75 ± 14 | 165 ± 30 | – |
| CO[C@@H](C(=O)N[C@@H](C)C(=O)NCCOC(=O)CCc1ccccc1)[C@H](O)[C@@H](O)[C@H](O)/C=C/C(C)(C)C [Compound L508] | 398 ± 128 | – | 71 ± 7 | 76 ± 8 | 158 ± 32 | IC50 (A549 (Lung Cancer)): 0.03 ± 0.01 µM; IC50 [5]: 2.21 ± 0.67 µM; IC50 (HCT-116 (Colon Cancer)): 0.35 ± 0.11 µM; IC50 (HO-8910 (Ovarian Cancer)): > 20 µM; IC50 (DU145 (Prostatic Cancer)): 0.29 ± 0.06 µM; IC50 (BEL-7402 (Liver Cancer)): 0.33 ± 0.21 µM; IC50 (SMMC-7721 (Liver Cancer)): 0.65 ± 0.26 µM; IC50 (Zip177 (Liver Cancer)): 0.4 ± 0.21 µM; IC50 (HepG2 (Liver Cancer)): 0.56 ± 0.08 µM; IC50 (7404 (Liver Cancer)): > 20 µM; IC50 [6]: 0.08 ± 0.01 µM; IC50 [7]: 1.57 ± 0.35 µM; IC50 (HMEC (Others)): 0.21 ± 0.02 µM |
| CCOC(=O)C(COC(=O)C1CCCCC1)NC(=O)[C@H](C)NC(=O)[C@H](OC)[C@H](O)[C@@H](O)[C@H](O)/C=C/C(C)(C)C (stereo partly drawn) [Compound L558a] | 201 ± 47 | 200 | 51 ± 5 | 98 ± 18 | 24 ± 3 | IC50 (A549 (Lung Cancer)): 0.08 ± 0.02 µM; IC50 [5]: 1.97 ± 0.86 µM; IC50 (HCT-116 (Colon Cancer)): 0.58 ± 0.25 µM; IC50 (HO-8910 (Ovarian Cancer)): > 20 µM; IC50 (DU145 (Prostatic Cancer)): 0.14 ± 0.01 µM; IC50 (BEL-7402 (Liver Cancer)): 0.28 ± 0.01 µM; IC50 (SMMC-7721 (Liver Cancer)): 0.41 ± 0.15 µM; IC50 (Zip177 (Liver Cancer)): 0.26 ± 0.05 µM; IC50 (HepG2 (Liver Cancer)): 1.11 ± 0.49 µM; IC50 (7404 (Liver Cancer)): > 20 µM; IC50 [6]: 0.14 ± 0.13 µM; IC50 [7]: 2.01 ± 1.06 µM; IC50 (HMEC (Others)): 0.25 ± 0.14 µM |
| CO[C@@]12[C@H](COC(N)=O)C3=C(C(=O)C(C)=C(N)C3=O)N1C[C@@H]1N[C@@H]12 [MMC, mitomycin, reference compound] | – | – | – | – | – | T/C (%) ([8]; P <0.05): 44.3%; TV (mm^3) d21 ([8]; d0 132 ± 52): 844 ± 308 mm^3; RTV ([8]; d21): 6.6 ± 1.6; Body Weight(g) Ultimate ([8]; initial 17.8 g): 21.7 g |
| COc1cccc2c1C(=O)c1c(O)c3c(c(O)c1C2=O)C[C@@](O)(C(=O)CO)C[C@@H]3O[C@H]1C[C@H](N)[C@H](O)[C@H](C)O1 [adriamycin, reference compound] | 510 ± 124 | 510 | 110 ± 13 | 261 ± 65 | – | – |
| CCCCCCCCCCCCCC(=O)O[C@H]1CC[C@H](NC(=O)[C@H](OC)[C@H](O)[C@@H](O)[C@H](O)/C=C/C(C)C)C(=O)N(C)C1 [bengamide B] | – | – | – | – | – | activities against human tumor cells in vitro (human tumor cells): nanomolar level; growth of heterograft in vivo [9]: remarkably depress the growth; solubility [10]: poor solubility |
